Laboratory results taken from patent US11629171B2, “Beta-hairpin peptidomimetics” (POLYPHOR AG, priority 2017, dated 2023).
Values after ≈ are worked out from the molar mass of the structure shown. Where a SMILES comes first, the peptide text is derived from it. Bridges are numbered along the chain shown (N, C = ends). Roman numbers before positions name the chains, in order. [ ]: non-standard residue; d: D form. The star is where a group is joined. Thr(ol) = C[C@@H](O)[C@H](N)CO; Tle = CC(C)(C)[C@H](N)C(=O)O; NMeV = CN[C@H](C(=O)O)C(C)C; Hiv = CC(C)[C@H](O)C(=O)O; dDab = NCC[C@@H](N)C(=O)O; hSer = N[C@@H](CCO)C(=O)O; Isobutyryl = CC(C)C(=O)*; Dab = NCC[C@H](N)C(=O)O; Dap = NC[C@H](N)C(=O)O

Tests used:
Assay type in all cases: cell-based
[1] = system: human red blood cells (hRBC); assay: Hemolysis; conditions: red cells of human, 1 h, 200
Summary of the method: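 Percent lysis of human red cells was derived from OD540 of the supernatant, referenced to 2% Triton X-100, after a 1 h, 37° C incubation of 20% (v/v) cells with 200 μg/mL peptide.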

[2] = system: Klebsiella pneumoniae SSI #3010; conditions: SSI #3010
Summary of the method: (§1)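 Standard CLSI microdilution testing: bacterial suspensions standardized against 0.5 McFarland to about 10^6 CFU/mL in MH-II broth meet serially halved peptide concentrations in broth containing 0.002% polysorbate 80; incubation lasts 18-20 h at 35° C before the MIC is scored.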

[3] = system: Acinetobacter baumannii 872842; conditions: 872842
Summary of the method: as §1

[4] = system: Pseudomonas aeruginosa ATCC 27853; conditions: ATCC 27853
Summary of the method: as §1

[5] = system: Escherichia coli ATCC 25922; conditions: ATCC 25922
Summary of the method: as §1

[6] = system: Klebsiella pneumoniae 968733; conditions: 968733
Summary of the method: as §1

[7] = system: Acinetobacter baumannii DSM 30008; conditions: DSM 30008
Summary of the method: as §1

[8] = system: Escherichia coli 926415; conditions: 926415
Summary of the method: as §1

[9] = system: Enterobacter cloacae 848840; conditions: 848840
Summary of the method: as §1

Row | SMILES | Klebsiella pneumoniae SSI #3010 MIC [2] [µg/mL] | MIC [3] [µg/mL] | Pseudomonas aeruginosa ATCC 27853 MIC [4] [µg/mL] | Escherichia coli ATCC 25922 MIC [5] [µg/mL] | MIC [6] [µg/mL] | Acinetobacter baumannii DSM 30008 MIC [7] [µg/mL] | MIC [8] [µg/mL] | MIC [9] [µg/mL] | MIC [2] [µg/mL] | MIC [4] [µg/mL] | MIC [5] [µg/mL] | MIC [7] [µg/mL] | Hemolysis at 200 μg/mL [1] [%]
1 | CC(C)C[C@@H]1NC(=O)[C@@H](CC(C)C)NC(=O)[C@H](CCN)NC(=O)[C@@H](NC(=O)[C@H](CCN)NC(=O)[C@@H](NC(=O)[C@H](CCN)NC(=O)CC[C@@H]2NC(=O)[C@H](CCN)NC(=O)[C@H](Cc3ccc(O)cc3)NC(=O)[C@@H](NC(=O)C(C)C)CSSC[C@@H](C(=O)N[C@H](CO)[C@@H](C)O)NC(=O)[C@H](C(C)(C)C)NC(=O)[C@H](CO)NC(=O)[C@H](Cc3c[nH]c4ccccc34)NC(=O)[C@H](CCO)NC(=O)[C@@H](CCN)NC2=O)[C@@H](C)O)CCNC(=O)[C@H]([C@@H](C)O)NC(=O)[C@H](CCN)NC(=O)[C@H](CCN)NC1=O [Example 3] (I: Isobutyryl-CY[Dab]E[dDab][hSer]WS[Tle]C[Thr(ol)] / II: [Dab]T[Dab][Dab][Dab][dL]L[Dab][Dab]T; disulfide I:1-I:10; amide I:4-II:N; lactam II:4-II:C) |  | 0.125 (≈ 0.0527 µM) |  |  | 0.25 (≈ 0.105 µM) |  | 0.25 (≈ 0.105 µM) | 2 (≈ 0.844 µM) | 0.125 (≈ 0.0527 µM) | 0.125 (≈ 0.0527 µM) | 0.125 (≈ 0.0527 µM) | 0.0625 (≈ 0.0264 µM) | <1
2 | CN[C@H](C(=O)N[C@H]1CSSC[C@@H](C(N)=O)NC(=O)[C@H](C(C)C)NC(=O)[C@H](CCO)NC(=O)[C@H](Cc2c[nH]c3ccccc23)NC(=O)[C@H](CCO)NC(=O)[C@@H](CCN)NC(=O)[C@H](CCC(=O)N[C@@H](CCN)C(=O)N[C@H](C(=O)N[C@@H](CCN)C(=O)N[C@H]2CCNC(=O)[C@H]([C@@H](C)O)NC(=O)[C@H](CCN)NC(=O)[C@H](CCN)NC(=O)[C@H](CC(C)C)NC(=O)[C@@H](CC(C)C)NC(=O)[C@H](CCN)NC2=O)[C@@H](C)O)NC(=O)[C@H](CCN)NC(=O)[C@H](Cc2ccc(O)cc2)NC1=O)C(C)C [Example 57] (I: H-[NMeV]CY[Dab]E[dDab][hSer]W[hSer]VC-NH2 / II: [Dab]T[Dab][Dab][Dab][dL]L[Dab][Dab]T; disulfide I:2-I:11; amide I:5-II:N; lactam II:4-II:C) |  | 0.5 (≈ 0.215 µM) |  |  | 4 (≈ 1.72 µM) |  | 0.5 (≈ 0.215 µM) | 0.25 (≈ 0.107 µM) | 0.25 (≈ 0.107 µM) | 0.25 (≈ 0.107 µM) | 0.125 (≈ 0.0537 µM) | 0.125 (≈ 0.0537 µM) | 3
3 | CC(=O)N[C@H](C(=O)N[C@H]1CSSC[C@@H](C(=O)N[C@@H](CO)C(N)=O)NC(=O)[C@H](C(C)(C)C)NC(=O)[C@H](CO)NC(=O)[C@H](Cc2c[nH]c3ccccc23)NC(=O)[C@H](CCN)NC(=O)[C@@H](CCN)NC(=O)[C@H](CCC(=O)N[C@@H](CCN)C(=O)N[C@H](C(=O)N[C@@H](CN)C(=O)N[C@H]2CCNC(=O)[C@H]([C@@H](C)O)NC(=O)[C@H](CCN)NC(=O)[C@H](CCN)NC(=O)[C@H](CC(C)C)NC(=O)[C@@H](CC(C)C)NC(=O)[C@H](CCN)NC2=O)[C@@H](C)O)NC(=O)[C@H]([C@@H](C)O)NC(=O)[C@H](Cc2ccc(O)cc2)NC1=O)C(C)C [Ex. 252] (I: Ac-VCYTE[dDab][Dab]WS[Tle]CS-NH2 / II: [Dab]T[Dap][Dab][Dab][dL]L[Dab][Dab]T; disulfide I:2-I:11; amide I:5-II:N; lactam II:4-II:C) |  | 0.0625 (≈ 0.0258 µM) |  |  | 0.125 (≈ 0.0515 µM) |  | 0.125 (≈ 0.0515 µM) | 0.125 (≈ 0.0515 µM) | 0.03125 (≈ 0.0129 µM) | 0.0625 (≈ 0.0258 µM) | 0.0625 (≈ 0.0258 µM) | 0.0625 (≈ 0.0258 µM) | 2
4 | CC(C)C[C@@H]1NC(=O)[C@@H](CC(C)C)NC(=O)[C@H](CCN)NC(=O)[C@@H](NC(=O)[C@H](CCN)NC(=O)[C@@H](NC(=O)[C@H](CCN)NC(=O)CC[C@@H]2NC(=O)[C@H](CCN)NC(=O)[C@H](Cc3ccc(O)cc3)NC(=O)[C@@H](NC(=O)[C@@H](O)C(C)C)CSSC[C@@H](C(=O)N[C@H](CO)[C@@H](C)O)NC(=O)[C@H](C(C)(C)C)NC(=O)[C@H]([C@@H](C)O)NC(=O)[C@H](Cc3c[nH]c4ccccc34)NC(=O)[C@H](CCO)NC(=O)[C@@H](CCN)NC2=O)[C@@H](C)O)CCNC(=O)[C@H]([C@@H](C)O)NC(=O)[C@H](CCN)NC(=O)[C@H](CCN)NC1=O [Ex. 76] (I: H-[Hiv]CY[Dab]E[dDab][hSer]WT[Tle]C[Thr(ol)] / II: [Dab]T[Dab][Dab][Dab][dL]L[Dab][Dab]T; disulfide I:2-I:11; amide I:5-II:N; lactam II:4-II:C) |  | 0.25 (≈ 0.104 µM) |  |  | 0.125 (≈ 0.0518 µM) |  | 0.125 (≈ 0.0518 µM) | 0.125 (≈ 0.0518 µM) | 0.125 (≈ 0.0518 µM) | 0.25 (≈ 0.104 µM) | 0.0625 (≈ 0.0259 µM) | 0.0625 (≈ 0.0259 µM) | 1
5 | CC(=O)N[C@H](C(=O)N[C@H]1CSSC[C@@H](C(=O)N[C@@H](CO)C(N)=O)NC(=O)[C@H](C(C)C)NC(=O)[C@H](CCC(=O)O)NC(=O)[C@H](Cc2c[nH]c3ccccc23)NC(=O)[C@H](CCO)NC(=O)[C@@H](CCN)NC(=O)[C@H](CCC(=O)N[C@@H](CCN)C(=O)N[C@H](C(=O)N[C@@H](CN)C(=O)N[C@H]2CCNC(=O)[C@H]([C@@H](C)O)NC(=O)[C@H](CCN)NC(=O)[C@H](CCN)NC(=O)[C@H](CC(C)C)NC(=O)[C@@H](CC(C)C)NC(=O)[C@H](CCN)NC2=O)[C@@H](C)O)NC(=O)[C@H](CCN)NC(=O)[C@H](Cc2ccc(O)cc2)NC1=O)C(C)C [Ex. 155] (I: Ac-VCY[Dab]E[dDab][hSer]WEVCS-NH2 / II: [Dab]T[Dap][Dab][Dab][dL]L[Dab][Dab]T; disulfide I:2-I:11; amide I:5-II:N; lactam II:4-II:C) |  | 0.125 (≈ 0.0509 µM) |  |  | 0.5 (≈ 0.204 µM) |  | 0.5 (≈ 0.204 µM) | 0.125 (≈ 0.0509 µM) | 0.125 (≈ 0.0509 µM) | 0.125 (≈ 0.0509 µM) | 0.0625 (≈ 0.0255 µM) | 0.0625 (≈ 0.0255 µM) | 1

The next lines start with results.

Row | Klebsiella pneumoniae SSI #3010 MIC [2] [µg/mL] | MIC [3] [µg/mL] | Pseudomonas aeruginosa ATCC 27853 MIC [4] [µg/mL] | Escherichia coli ATCC 25922 MIC [5] [µg/mL] | MIC [6] [µg/mL] | Acinetobacter baumannii DSM 30008 MIC [7] [µg/mL] | MIC [8] [µg/mL] | MIC [9] [µg/mL] | MIC [2] [µg/mL] | MIC [4] [µg/mL] | MIC [5] [µg/mL] | MIC [7] [µg/mL] | SMILES | Hemolysis at 200 μg/mL [1] [%]
6 | 0.0625 | 0.125 (≈ 0.0521 µM) | 0.125 | 0.0625 | 0.25 (≈ 0.104 µM) | 0.0625 | 0.25 (≈ 0.104 µM) | 0.125 (≈ 0.0521 µM) |  |  |  |  | CC(=O)N[C@H](C(=O)N[C@H]1CSSC[C@@H](C(=O)N[C@@H](CO)C(N)=O)NC(=O)[C@H](C(C)C)NC(=O)[C@H](CO)NC(=O)[C@H](Cc2c[nH]c3ccccc23)NC(=O)[C@H](CCC(=O)N[C@@H](CCN)C(=O)N[C@H](C(=O)N[C@@H](CN)C(=O)N[C@H]2CCNC(=O)[C@H]([C@@H](C)O)NC(=O)[C@H](CCN)NC(=O)[C@H](CCN)NC(=O)[C@H](CC(C)C)NC(=O)[C@@H](CC(C)C)NC(=O)[C@H](CCN)NC2=O)[C@@H](C)O)NC(=O)[C@@H](CCN)NC(=O)[C@H](CCN)NC(=O)[C@H](CO)NC(=O)[C@H](Cc2ccc(O)cc2)NC1=O)C(C)C [Ex. 356] (I: Ac-VCYS[Dab][dDab]EWSVCS-NH2 / II: [Dab]T[Dap][Dab][Dab][dL]L[Dab][Dab]T; disulfide I:2-I:11; amide I:7-II:N; lactam II:4-II:C) | 2
7 | 0.0625 | 0.5 (≈ 0.21 µM) | 0.125 | 0.0625 | 2 (≈ 0.842 µM) | 0.125 | 0.5 (≈ 0.21 µM) | 0.5 (≈ 0.21 µM) |  |  |  |  | CC(=O)N[C@H](C(=O)N[C@H]1CCN(C)C(=O)C[C@@H](C(=O)N[C@@H](CO)C(N)=O)NC(=O)[C@H](C(C)C)NC(=O)[C@H](CO)NC(=O)[C@H](Cc2c[nH]c3ccccc23)NC(=O)CNC(=O)[C@@H](CCN)NC(=O)[C@H](CCC(=O)N[C@@H](CCN)C(=O)N[C@H](C(=O)N[C@@H](CN)C(=O)N[C@H]2CCNC(=O)[C@H]([C@@H](C)O)NC(=O)[C@H](CCN)NC(=O)[C@H](CCN)NC(=O)[C@H](CC(C)C)NC(=O)[C@@H](CC(C)C)NC(=O)[C@H](CCN)NC2=O)[C@@H](C)O)NC(=O)[C@H](CCN)NC(=O)[C@H](Cc2ccc(O)cc2)NC1=O)C(C)C [Ex. 348] | <1
8 | 0.125 | 0.0625 (≈ 0.026 µM) | 0.125 | 0.0625 | 0.5 (≈ 0.208 µM) | 0.0625 | 0.25 (≈ 0.104 µM) | 0.125 (≈ 0.052 µM) |  |  |  |  | CC[C@H](C)[C@@H]1NC(=O)[C@H](CO)NC(=O)[C@H](Cc2c[nH]c3ccccc23)NC(=O)[C@H](CO)NC(=O)[C@@H](CCN)NC(=O)[C@H](CCC(=O)N[C@@H](CCN)C(=O)N[C@H](C(=O)N[C@@H](CN)C(=O)N[C@H]2CCNC(=O)[C@H]([C@@H](C)O)NC(=O)[C@H](CCN)NC(=O)[C@H](CCN)NC(=O)[C@H](CC(C)C)NC(=O)[C@@H](CC(C)C)NC(=O)[C@H](CCN)NC2=O)[C@@H](C)O)NC(=O)[C@H](CCN)NC(=O)[C@H](Cc2ccc(O)cc2)NC(=O)[C@@H](NC(=O)[C@@H](NC(C)=O)C(C)C)CCNC(=O)C[C@@H](C(=O)N[C@@H](CO)C(N)=O)NC1=O [Ex. 323] (I: Ac-V[Dab]Y[Dab]E[dDab]SWSIDS-NH2 / II: [Dab]T[Dap][Dab][Dab][dL]L[Dab][Dab]T; lactam I:2-I:11, II:4-II:C; amide I:5-II:N) | <1
